Consider 16 compounds from US8106055B2, “Substituted amide compounds” (Gruenenthal GmbH, priority 2007, dated 2012).

Where two headings read alike, the source gives them in different places.

Test [1] deals with T1, human μ opiate receptor (Homo sapiens, UniProt P35372).
T1 construct: purchased PerkinElmer Life Sciences, Zaventem, Belgium RB-HOM; host or cells: CHO-K1 cells (membrane preparation)
Briefly: Affinity for the human μ opiate receptor ([3H]-naloxone displacement, CHO-K1 receptor membrane preparation, SPA). It is filed as binding. As to conditions: 1.5 h, Table 3, to be read in the same way as Table 1; test concentration 1 μM; read-out: μ. The method in brief:
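Readout is percent displacement of [3H]-naloxone (1 nmol/l) from human μ receptor in CHO-K1 membranes, measured at 1 μmol/l compound. Incubation runs 90 minutes at room temperature with WGA-SPA beads in Tris-HCl/BSA buffer; non-specific binding is defined with 100 μmol/l naloxone.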

Test [2] has as its target T2, human bradykinin 1 receptor (B1R) (Homo sapiens, UniProt P46663).
T2 construct: expressed in transfected cells; host or cells: CHO K1 cells
T2 sequence (P46663 1-353): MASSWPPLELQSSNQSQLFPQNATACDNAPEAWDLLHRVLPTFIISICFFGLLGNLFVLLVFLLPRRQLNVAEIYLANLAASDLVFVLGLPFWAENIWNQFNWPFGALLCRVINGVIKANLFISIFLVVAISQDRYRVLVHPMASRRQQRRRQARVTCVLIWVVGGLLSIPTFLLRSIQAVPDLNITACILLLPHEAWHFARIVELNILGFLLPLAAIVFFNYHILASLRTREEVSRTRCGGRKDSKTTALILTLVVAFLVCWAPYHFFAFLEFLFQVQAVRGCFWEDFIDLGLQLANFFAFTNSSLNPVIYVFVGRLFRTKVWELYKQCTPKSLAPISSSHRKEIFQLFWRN
The experiment in a line: Functional investigation on the human bradykinin 1 receptor (B1R), Ca2+ FLIPR assay in CHO K1 hB1R cells. The class given is cell-based. The settings on record: CHO-K1, B1R antagonism human, test substance 10 μM, read-out: B1R Ant. h [10 μM] % Inhibition. The method in brief:
(§1)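 Stably transfected CHO K1 cells loaded with Fluo-4; FLIPR Ca2+ fluorescence peak (ex 488/em 540 nm). Compound added first (agonism vs Lys-Des-Arg9-bradykinin ≥50 nM human, Des-Arg9-bradykinin 10 μM rat), then after 10-20 min agonist at EC80; antagonism as % inhibition, IC50 from concentration series, n=2-3, N≥2.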

Test [3] addresses T3, bradykinin 1 receptor (B1R) of the rat (Rattus norvegicus, UniProt P97583).
T3 construct: expressed in transfected cells; host or cells: CHO K1 cells
T3 sequence (P97583 1-337): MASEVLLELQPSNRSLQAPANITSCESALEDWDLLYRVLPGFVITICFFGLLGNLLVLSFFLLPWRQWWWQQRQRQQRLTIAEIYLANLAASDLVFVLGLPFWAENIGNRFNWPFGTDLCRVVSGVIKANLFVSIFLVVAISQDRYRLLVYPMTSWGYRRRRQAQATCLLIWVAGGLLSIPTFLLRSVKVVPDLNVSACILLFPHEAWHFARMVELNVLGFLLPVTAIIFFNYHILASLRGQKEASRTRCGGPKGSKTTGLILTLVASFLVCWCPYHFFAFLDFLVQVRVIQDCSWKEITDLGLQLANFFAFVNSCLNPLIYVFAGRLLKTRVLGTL
Briefly: Functional investigation on the rat bradykinin 1 receptor (B1R), Ca2+ FLIPR assay in CHO K1 rB1R cells. It is filed as cell-based. The settings on record: CHO-K1, B1R antagonism rat, test substance 10 μM, read-out: B1R Ant. r [10 μM] % Inhibition. The method in brief:
as §1

The mark [4] stands for this setting: % inhibition compared with the maximum achievable inhibition.

T1 sequence (P35372 whole entry): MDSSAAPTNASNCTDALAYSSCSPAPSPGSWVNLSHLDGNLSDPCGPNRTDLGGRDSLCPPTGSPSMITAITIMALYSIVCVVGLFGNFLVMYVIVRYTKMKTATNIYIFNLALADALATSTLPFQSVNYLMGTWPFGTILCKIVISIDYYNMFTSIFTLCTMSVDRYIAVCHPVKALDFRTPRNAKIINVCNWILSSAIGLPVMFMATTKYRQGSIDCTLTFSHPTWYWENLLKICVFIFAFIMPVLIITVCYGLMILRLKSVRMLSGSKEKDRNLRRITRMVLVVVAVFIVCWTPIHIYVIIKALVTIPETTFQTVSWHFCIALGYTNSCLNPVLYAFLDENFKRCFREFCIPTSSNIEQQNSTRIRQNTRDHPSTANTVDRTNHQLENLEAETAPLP

As to `O=C(COCC1CCCN(S(=O)(=O)c2c(Cl)cc(Cl)cc2Cl)C1)NCC1CCC(C(CCc2ccccc2)N2CCCC2)CC1` (stereo not drawn) [Example 759, N-((4-(3-phenyl-1-(pyrrolidin-1-yl)propyl)cyclohexyl)methyl)-2-((1-(2,4,6-trichlorophenylsulfonyl)piperidin-3-yl)methoxy)acetamide], the inhibition at 1 µM in test [1] stood at 87%. Also, the inhibition at 10 µM amounted to 100% in test [2] (Ca2+ FLIPR, CHO K1 hB1R cells) and 56% in test [3] (Ca2+ FLIPR, CHO K1 rB1R cells).

`COc1cc(C)c(S(=O)(=O)N(C)CCOCC(=O)N2CCC(C(c3ccccc3)N3CCN(C)CC3)CC2)c(C)c1` (stereo not drawn) [Example 798, 4-methoxy-N,2,6-trimethyl-N-(2-(2-(4-((4-methylpiperazin-1-yl)(phenyl)methyl)piperidin-1-yl)-2-oxoethoxy)ethyl)benzenesulfonamide]: in test [1], the inhibition at 1 µM was determined as 19%. For the same compound, the inhibition at 10 µM in test [2] (setting [4]) is 110%; in test [3] (setting [4]), 100%.

Consider `COc1cc(C)c(S(=O)(=O)N(C)CCOCC(=O)N2CCC(C(c3cccc(F)c3)N3CCN(C)CC3)CC2)c(C)c1` (stereo not drawn) [Example 799, N-(2-(2-(4-((3-fluorophenyl)(4-methylpiperazin-1-yl)methyl)piperidin-1-yl)-2-oxoethoxy)ethyl)-4-methoxy-N,2,6-trimethylbenzenesulfonamide], for which, in test [1], the inhibition at 1 µM is 16%. The inhibition at 10 µM was determined as 110% in test [2] (setting [4]) and 100% in test [3] (setting [4]).

Take `COc1cc(C)c(S(=O)(=O)N2CCCCC2COCC(=O)N2CCC(C(c3cccc(F)c3)N3CCN(C)CC3)CC2)c(C)c1` (stereo not drawn) [Example 800, 1-(4-((3-fluorophenyl)(4-methylpiperazin-1-yl)methyl)piperidin-1-yl)-2-((1-(4-methoxy-2,6-dimethylphenylsulfonyl)piperidin-2-yl)methoxy)ethanone]: in test [1], the inhibition at 1 µM amounted to 7%. Also, the inhibition at 10 µM in test [2] (setting [4]) turned out to be 108%; in test [3] (setting [4]) it was 97%.

In the case of `COc1cc(C)c(S(=O)(=O)N(C)CCOCC(=O)N2CCC(C(CCc3ccccc3)N3CCN(C)CC3)CC2)c(C)c1` (stereo not drawn) [Example 801, 4-methoxy-N,2,6-trimethyl-N-(2-(2-(4-(1-(4-methylpiperazin-1-yl)-3-phenylpropyl)piperidin-1-yl)-2-oxoethoxy)ethyl)benzenesulfonamide], in test [1], the inhibition at 1 µM worked out at 21%. For the same compound, the inhibition at 10 µM was found to be 106% in test [2] (setting [4]) and 97% in test [3] (setting [4]).

Take `COc1cc(C)c(S(=O)(=O)N2CCCCC2COCC(=O)N2CCC(C(Cc3ccccc3)N3CCN(C)CC3)CC2)c(C)c1` (stereo not drawn) [Example 802, 2-((1-(4-methoxy-2,6-dimethylphenylsulfonyl)piperidin-2-yl)methoxy)-1-(4-(1-(4-methylpiperazin-1-yl)-2-phenylethyl)piperidin-1-yl)ethanone]: in test [1], the inhibition at 1 µM is 27%. Also, the inhibition at 10 µM in test [2] (setting [4]) stood at 106%; in test [3] (setting [4]), 97%.

For the compound `COc1cc(C)c(S(=O)(=O)N(C)CCOCC(=O)N2CCC(C(Cc3ccccc3)N3CCN(C)CC3)CC2)c(C)c1` (stereo not drawn) [Example 803, 4-methoxy-N,2,6-trimethyl-N-(2-(2-(4-(1-(4-methylpiperazin-1-yl)-2-phenylethyl)piperidin-1-yl)-2-oxoethoxy)ethyl)benzenesulfonamide], the inhibition at 1 µM in test [1] was 13%. The inhibition at 10 µM in test [2] (setting [4]) was found to be 108%; in test [3] (setting [4]) it was 99%.

Regarding `COc1cc(C)c(S(=O)(=O)N(C)CCOCC(=O)N2CCC(C(c3ccc(F)cc3)N3CCN(C)CC3)CC2)c(C)c1` (stereo not drawn) [Example 804, N-(2-(2-(4-((4-fluorophenyl)(4-methylpiperazin-1-yl)methyl)piperidin-1-yl)-2-oxoethoxy)ethyl)-4-methoxy-N,2,6-trimethylbenzenesulfonamide], in test [1], the inhibition at 1 µM was found to be 9%. The figures for the inhibition at 10 µM in test [2] (setting [4]) and in test [3] (setting [4]) were 105% and 100%, respectively.

With `COc1cc(C)c(S(=O)(=O)N2CCCCC2COCC(=O)N2CCC(C(c3ccc(F)cc3)N3CCN(C)CC3)CC2)c(C)c1` (stereo not drawn) [Example 805, 1-(4-((4-fluorophenyl)(4-methylpiperazin-1-yl)methyl)piperidin-1-yl)-2-((1-(4-methoxy-2,6-dimethylphenylsulfonyl)piperidin-2-yl)methoxy)ethanone], the inhibition at 1 µM in test [1] amounted to 4%. The inhibition at 10 µM worked out at 103% in test [2] (setting [4]) and 99% in test [3] (setting [4]).

As for `COc1cc(C)c(S(=O)(=O)N2CCCCC2COCC(=O)N2CCC(C(CCc3ccccc3)N3CCN(C)CC3)CC2)c(C)c1` (stereo not drawn) [Example 806, 2-((1-(4-methoxy-2,6-dimethylphenylsulfonyl)piperidin-2-yl)methoxy)-1-(4-(1-(4-methylpiperazin-1-yl)-3-phenylpropyl)piperidin-1-yl)ethanone], the inhibition at 1 µM in test [1] stood at 12%. In addition, the values for the inhibition at 10 µM in test [2] (setting [4]) and in test [3] (setting [4]) were 109% and 99%, respectively.

Regarding `COc1cc(C)c(S(=O)(=O)N2CCCCC2COCC(=O)N2CCC(C(c3ccccc3)N3CCN(C)CC3)CC2)c(C)c1` (stereo not drawn) [Example 807, 2-((1-(4-methoxy-2,6-dimethylphenylsulfonyl)piperidin-2-yl)methoxy)-1-(4-((4-methylpiperazin-1-yl)(phenyl)methyl)piperidin-1-yl)ethanone], in test [1], the inhibition at 1 µM came out at 11%. Besides, the inhibition at 10 µM in test [2] (setting [4]) amounted to 105%; in test [3] (setting [4]), 98%.

With `CN1CCN(C(c2ccc(F)cc2)C2CCN(C(=O)COCC3CCc4ccccc4N3S(=O)(=O)c3ccc(Cl)c(Cl)c3)CC2)CC1` (stereo not drawn) [Example 808, 2-((1-(3,4-dichlorophenylsulfonyl)-1,2,3,4-tetrahydroquinolin-2-yl)methoxy)-1-(4-((4-fluorophenyl)(4-methylpiperazin-1-yl)methyl)piperidin-1-yl)ethanone], the inhibition at 1 µM in test [1] was 12%. Moreover, the inhibition at 10 µM in test [2] (setting [4]) turned out to be 122%; in test [3] (setting [4]) it was 75%.

As for `CN1CCN(C(c2cccc(F)c2)C2CCN(C(=O)COCC3CCc4ccccc4N3S(=O)(=O)c3ccc(Cl)c(Cl)c3)CC2)CC1` (stereo not drawn) [Example 809, 2-((1-(3,4-dichlorophenylsulfonyl)-1,2,3,4-tetrahydroquinolin-2-yl)methoxy)-1-(4-((3-fluorophenyl)(4-methylpiperazin-1-yl)methyl)piperidin-1-yl)ethanone], the inhibition at 1 µM in test [1] is 6%. Also, the inhibition at 10 µM in test [2] (setting [4]) turned out to be 109%; in test [3] (setting [4]) it was 87%.

As to `CN1CCN(C(c2ccccc2)C2CCN(C(=O)COCC3CCc4ccccc4N3S(=O)(=O)c3ccc(Cl)c(Cl)c3)CC2)CC1` (stereo not drawn) [Example 810, 2-((1-(3,4-dichlorophenylsulfonyl)-1,2,3,4-tetrahydroquinolin-2-yl)methoxy)-1-(4-((4-methylpiperazin-1-yl)(phenyl)methyl)piperidin-1-yl)ethanone], in test [1], the inhibition at 1 µM worked out at 19%. Besides, the inhibition at 10 µM in test [2] (setting [4]) is 102%; in test [3] (setting [4]), 97%.

Consider `CN1CCN(C(CCc2ccccc2)C2CCN(C(=O)COCC3CCc4ccccc4N3S(=O)(=O)c3ccc(Cl)c(Cl)c3)CC2)CC1` (stereo not drawn) [Example 811, 2-((1-(3,4-dichlorophenylsulfonyl)-1,2,3,4-tetrahydroquinolin-2-yl)methoxy)-1-(4-(1-(4-methylpiperazin-1-yl)-3-phenylpropyl)piperidin-1-yl)ethanone], for which the inhibition at 1 µM in test [1] was 20%. The inhibition at 10 µM was found to be 104% in test [2] (setting [4]) and 96% in test [3] (setting [4]).

As for `CN1CCN(C(Cc2ccccc2)C2CCN(C(=O)COCC3CCc4ccccc4N3S(=O)(=O)c3ccc(Cl)c(Cl)c3)CC2)CC1` (stereo not drawn) [Example 812, 2-((1-(3,4-dichlorophenylsulfonyl)-1,2,3,4-tetrahydroquinolin-2-yl)methoxy)-1-(4-(1-(4-methylpiperazin-1-yl)-2-phenylethyl)piperidin-1-yl)ethanone], in test [1], the inhibition at 1 µM is 37%. The inhibition at 10 µM was 105% in test [2] (setting [4]) and 98% in test [3] (setting [4]).
